# “Also recorded” adds a separate entry of the source. Residues, ends and D or L forms follow the SMILES beside them.
# Tested on: HepG2 cells
# Assay: Lipid accumulation assay in uric acid-treated HepG2 cells
# Assay type: cell-based
# Conditions: 120 μg/mL uric acid, 24 hours
# Protocol: The lipid accumulation assay was done. Briefly, HepG2 cells at 70% confluence were incubated in RPMI 1640 medium containing 120 μg/mL uric acid for 24 hours, which was used to increase the lipid accumulation. After being washed by PBS buffer, the cells were maintained in new RPMI 1640 medium containing the metabolites (5.0, 1.0, 0.5, 0.1, and 0.05 μg/mL, the dried metabolites were redissolved in RPMI 164 medium) and 120 μg/mL uric acid for another 24 hours. Cells maintained in pure RPMI 1640 medium were employed as control.
# To further identify bioactive metabolites produced by B. longum, we applied a fractionation approach followed by liquid chromatography-mass spectrometry (LC-MS) coupled with in vitro screening strategy (FIG. 2A). Briefly, the extraction method of B. longum BCRC12585 metabolites (that is, B. longum metabolites, or B. longum crude extract) is the same as in Example 2, and then twenty-five fractions derived from B. longum metabolites were prepared by pre-HPLC column, followed by individually testing the anti-lipid accumulation activity with HepG2 cells. […] To identify candidate metabolites from each active fraction, further analysis was performed by using liquid chromatography coupled with high resolution mass spectrometry (LC-MS/MS). […] Collectively, we integrated in vitro, in vivo, and metabolomics data to identify the bioactive metabolites which could be produced by B. longum.
row,Compound,lipid accumulation in HepG2 cells
1,"Nc1ncnc2c1ncn2[C@@H]1O[C@H](CO)[C@@H](OP(=O)(O)O)[C@H]1O [3-AMPP, 3-adenosine monophosphate]",significantly inhibited
2,"N[C@@H](CCC(=O)O)C(=O)O [GA, glutamic acid]",significantly inhibited
3,"CC(C)[C@H](NC(=O)[C@@H]1CCC(=O)N1)C(=O)O [Pyro-glu-val, pyro-glutamyl-valine] (HELM PEPTIDE1{[Glp].V}$$$$V2.0)",significantly inhibited
4,"O=C1CC[C@@H](C(=O)O)N1 [PyroGA, pyroglutamic acid]",significantly inhibited
5,Nc1ncnc2c1ncn2[C@@H]1O[C@H](CO)[C@@H](O)[C@H]1O [adenosine],significantly inhibited
6,CSCC[C@H](N)C(=O)O [methionine],significantly inhibited; also recorded: exhibited a lipid-lowering effect
7,CC(C)[C@H](N)C(=O)O [valine],significantly inhibited

# Tested on: hepatic gene expression
# Assay: Hepatic RNA-sequencing of treated mice
# Assay type: in vivo
# Conditions: liver
# Protocol: To obtain a more comprehensive understanding of MTA's potential as an antiobesity molecule, hepatic RNA-sequencing was performed on mice treated with both MTA and B. longum to determine its underlying mechanism for preventing obesity. […] Then, we conducted an in-depth analysis of the regulated genes involved in these biological functions. […] Likewise, overexpression of inhibin beta-A, which is encoded by the Inhba gene, can stimulate mitochondrial energy metabolism and increase energy expenditure.
# Bile acids are regarded as important signaling molecules to regulate fatty acid, cholesterol, energy and glucose homeostasis; therefore, enhancing bile acid synthesis may be a strategy to avoid diet-induced obesity. Furthermore, the increased expression of Cyp7a1, which encodes the rate-limiting enzyme in the classic bile acid synthesis pathway, prevents high-fat diet-induced obesity, insulin resistance and atherosclerosis.
row,Compound,expression of Cyp7a1
1,"CSC[C@H]1O[C@@H](n2cnc3c(N)ncnc32)[C@H](O)[C@@H]1O [MTA, 5′-s-methyl-5′-thioadenosine]",up-regulated
